Test results as given in the supplement of paper PMC10307832.

Tests used:
Assay in all cases: relative viability (nuclei count vs DMSO), 5 days (fraction); higher = more cells survive
Lestaurtinib = compound: C[C@]12O[C@H](C[C@]1(O)CO)n1c3ccccc3c3c4c(c5c6ccccc6n2c5c31)CNC4=O [Lestaurtinib]
In short: (§1)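 MetaXpress counted nuclei in 4× images of lung cancer cell lines that had been fixed, permeabilised and Hoechst-stained in one step. Before that, cells in 1536-well plates were kept overnight at 37 °C, pinned with five √10-spaced library-drug doses on vehicle-anchored plates, and cultured 5 days without medium change. Viability takes treated-well nuclei over vehicle-well nuclei and uses the median across plates. Plates were accepted only at control CV below 25% and at least one doubling.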

[1] = compound: C1/C(=C\C2=CC=CS2)/C(=O)/C(=C/C3=CC=CS3)/C1
In short: as §1

TPCA-1 = compound: C1=CC(=CC=C1C2=CC(=C(S2)NC(=O)N)C(=O)N)F [TPCA-1]
In short: as §1

[2] = compound: C1/C(=C\C2=CC=CS2)/C(=O)/C(=C/C3=CC=CS3)/C1 + CC(=O)Nc1cccc(-n2c(=O)n(C3CC3)c(=O)c3c(Nc4ccc(I)cc4F)n(C)c(=O)c(C)c32)c1 [Trametinib] (partner 0.02 µM)
In short: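 The day after seeding in 1536-well plates, lung cancer cell lines were treated by pin tool with a single drug, or with a fixed anchor-drug dose together with five library-drug doses (not always all listed) in √10 steps. After 5 days, a combined fix-and-stain solution (final 0.05% Triton X-100, 1% formaldehyde, 1 ug/ml Hoechst) was added. Nuclei counted on 4× images gave relative viability as treated counts over vehicle counts, reported as the median of duplicate plates.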

Row | Cell Line | relative viability (Lestaurtinib; 0.005 µM) | relative viability (Lestaurtinib; 0.01581 µM) | relative viability (Lestaurtinib; 0.05 µM) | relative viability (Lestaurtinib; 0.1581 µM) | relative viability (Lestaurtinib; 0.5 µM) | relative viability ([1]; 0.2 µM) | relative viability ([1]; 0.6325 µM) | relative viability ([1]; 2 µM) | relative viability ([1]; 6.325 µM) | relative viability ([1]; 20 µM) | relative viability (TPCA-1; 0.04 µM) | relative viability (TPCA-1; 0.1265 µM) | relative viability (TPCA-1; 0.4 µM) | relative viability (TPCA-1; 1.265 µM) | relative viability (TPCA-1; 4 µM) | relative viability ([2]; first compound 0.2 µM) | relative viability ([2]; first compound 0.6325 µM) | relative viability ([2]; first compound 2 µM) | relative viability ([2]; first compound 6.325 µM) | relative viability ([2]; first compound 20 µM)
1 | HCC-44 | 0.923 | 1.16 | 0.941 | 1.11 | 0.845 | 1.02 | 1 | 0.989 | 0.898 | 0.962 | 1.01 | 0.933 | 0.965 | 0.643 | 0.901 | 1.1 | 1.07 | 1.09 | 0.925 | 0.911
2 | NCI-H522 | 1.03 | 0.963 | 0.877 | 0.877 | 0.604 | 1.12 | 0.967 | 1.06 | 0.978 | 0.922 | 0.928 | 0.916 | 1.18 | 1.07 | 0.844 | 0.726 | 0.728 | 0.715 | 0.739 | 0.767
3 | ChaGo-K-1 | 1 | 1.08 | 0.906 | 1.01 | 0.437 | 0.997 | 1.02 | 1.02 | 0.787 | 0.535 | 1.09 | 0.927 | 0.965 | 0.925 | 0.637 | 0.9 | 0.949 | 0.838 | 0.675 | 0.478
4 | COR-L23 | 1.08 | 1.13 | 0.633 | 0.829 | 0.166 | 1.03 | 1.05 | 1 | 0.865 | 0.947 | 1.03 | 0.924 | 0.968 | 0.986 | 0.857 | 0.553 | 0.575 | 0.674 | 0.508 | 0.633
5 | EMC-BAC-2 | 0.925 | 1.04 | 0.73 | 0.417 | 0.357 | 0.904 | 1.06 | 0.978 | 0.916 | 1.07 | 1.01 | 0.979 | 1.05 | 0.819 | 0.392 | 1 | 0.854 | 0.939 | 0.864 | 0.952
6 | LCLC-103H | 1.1 | 1.08 | 0.937 | 0.693 | 0.519 | 1.04 | 1.02 | 1.09 | 0.87 | 0.986 | 1.1 | 0.933 | 1.06 | 0.941 | 1.02 | 0.664 | 0.701 | 0.678 | 0.595 | 0.63
7 | LK-2 | 1.24 | 1.06 | 0.872 | 0.651 | 0.279 | 1.02 | 1 | 1.1 | 1.06 | 0.966 | 1.24 | 0.8 | 0.993 | 0.982 | 0.503 | 0.643 | 0.968 | 0.809 | 0.712 | 0.707
